The source made the active and inactive calls.
Legend:
[1] = biological target: FAD-linked sulfhydryl oxidase ALR (Homo sapiens, UniProt P55789); assay: inhibitors of human ALR sulfhydryl oxidase, dose response, biochemical, H2O2 detection, luminescence, cherry-pick (AID 493248)
[2] = biological target: T1, Ubiquitin-conjugating enzyme E2 N (Homo sapiens, UniProt P61088); format: functional;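 note: Dose-response confirmation in a TR-FRET assay detecting UBC13-driven polyubiquitin chain formation, inhibition measured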
T1 sequence (P61088 whole entry): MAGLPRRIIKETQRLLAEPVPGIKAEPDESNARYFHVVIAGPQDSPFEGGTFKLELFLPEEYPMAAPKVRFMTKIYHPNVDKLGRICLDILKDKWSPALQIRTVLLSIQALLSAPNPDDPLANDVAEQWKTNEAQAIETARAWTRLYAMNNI

[3] = microbe, parasite or virus in culture; format: functional; conditions: Mycobacterium tuberculosis
[4] = Luminescence Cell-Based Dose Retest to Confirm Inhibitors of Cancer Stem Cells. [Related pubchem assays (depositor defined):AID2717, AID2721]; format: functional; conditions: Homo sapiens
[5] = biological target: T2, Cytochrome P450 1A2 (Homo sapiens, UniProt P05177);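 note: PubChem cytochrome P450 panel assay, CYP1A2 panel member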
T2 sequence (P05177 whole entry): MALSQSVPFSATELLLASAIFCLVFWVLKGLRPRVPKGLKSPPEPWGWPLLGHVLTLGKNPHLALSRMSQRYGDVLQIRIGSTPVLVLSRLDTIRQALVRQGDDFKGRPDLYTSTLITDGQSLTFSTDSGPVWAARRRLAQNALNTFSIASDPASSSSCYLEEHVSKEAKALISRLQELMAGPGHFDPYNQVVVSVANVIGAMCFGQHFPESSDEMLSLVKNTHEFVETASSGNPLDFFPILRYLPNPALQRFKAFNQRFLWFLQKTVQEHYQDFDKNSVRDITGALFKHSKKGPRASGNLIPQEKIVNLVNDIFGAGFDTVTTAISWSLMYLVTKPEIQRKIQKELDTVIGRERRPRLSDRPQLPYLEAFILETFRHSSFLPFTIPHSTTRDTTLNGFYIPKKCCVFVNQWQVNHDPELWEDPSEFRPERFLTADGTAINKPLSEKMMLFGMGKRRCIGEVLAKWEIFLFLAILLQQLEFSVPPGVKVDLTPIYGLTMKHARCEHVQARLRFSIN

[6] = biological target: T3, Cytochrome P450 2C9 (Homo sapiens, UniProt P11712)
[7] = biological target: Cytochrome P450 2C19 (Homo sapiens, UniProt P33261); assay: Cytochrome panel assay with activity outcomes. Panel member name: p450-cyp2c19 Compounds with AC50 equal or less than 10 uM are considered active; format: functional
[8] = biological target: Cytochrome P450 3A4 (Homo sapiens, UniProt P08684);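 note: CYP3A4 tested as one member of a cytochrome P450 panel screen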
[9] = Luminescence Cell-Based Dose Confirmation HTS to Identify Activators of 5'UTR Stem-Loop Driven Alpha-Synuclein mRNA Translation in H4 Neuroglioblastoma Cells. [Related pubchem assays: 1829 (Project Summary), 1814 (Primary HTS)]; format: functional
[10] = Luminescence Cell-Based Dose Response HTS to Identify Activators of Luciferase Translation or Activity in H4 […] Cells. [Related pubchem assays: 1829 (Project Summary), 1814 (Primary HTS)]; format: functional
[11] = system: H4; assay: Luminescence Cell-Based Dose Response HTS to Identify Activators of 5'UTR Stem-Loop Driven Prion Protein mRNA Translation in H4 Neuroglioblastoma Cells. [Related pubchem assays: 1829 (Project Summary), 1814 (Primary HTS)]; format: functional; conditions: Homo sapiens
[12] = growth suppression of PTEN-null colon cells, dose response, cell-based, HCT116 PTEN knockout (AID 1047); format: functional;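 note: HCT116 colon tumor cells with PTEN knocked out; cells exposed to compound for 60 hours before readout; potency for loss of cell viability measured by luminescence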
[13] = growth suppression of beta-catenin-knockout colon cells, dose response, cell-based, HCT116, human colon tumor (AID 1045); format: functional;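 note: HCT116 colon tumor cells with beta catenin knocked out; cells exposed to compound for 60 hours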
[14] = biological target: Eukaryotic translation initiation factor 4E (Mus musculus, UniProt P63073); assay: eIF4E–eIF4G protein interaction inhibitors, dose response, biochemical, TR-FRET (AID 855); format: functional;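 note: potency for disrupting eIF4E binding to eIF4GI seen as loss of FRET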
[15] = system: BJ; assay: cytotoxicity toward BJ-TERT-LT-ST fibroblasts, dose response, cell-based, RAS-independent, luminescence (AID 1935); format: functional; conditions: Homo sapiens;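 note: BJ fibroblasts immortalized with TERT plus LT and ST oncogenes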
[16] = system: BJ; assay: cells; format: functional, cell-based; conditions: Homo sapiens
[17] = system: BJ; assay: cytotoxicity toward Ras-transformed BJeLR fibroblasts, dose response, cell-based, alamar blue fluorescence, cherrypicked samples (AID 2631); format: functional; conditions: Homo sapiens;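 note: confirmatory dose-response assay in RAS-dependent BJ fibroblasts engineered with TERT, LT and ST, with cytotoxicity read by fluorescence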
[18] = system: BJ; assay: cytotoxicity toward BJ-TERT fibroblasts, dose response, cell-based, RAS-independent, luminescence (AID 1933); format: functional; conditions: Homo sapiens
[19] = cytotoxicity toward DRD oncogenic fibroblasts, dose response, cell-based, non-viral oncogenic, luminescence (AID 1934); format: functional; conditions: Homo sapiens
[20] = control 3'UTR Renilla luciferase suppression, dose response, counter-screen for Shn3 inhibitor project, cell-based, Clone20-Shn3RL, cherry-picked (AID 624133); format: functional
[21] = Shn3 3'UTR reporter inhibitors, dose response, cell-based, Clone20 osteoblasts, firefly luciferase, cherry-picked (AID 624132); format: functional;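 note: firefly luciferase luminescence from reporter carrying the Shn3 3'UTR in osteoblasts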
[22] = biological target: T4, Streptokinase A (Streptococcus pyogenes serotype M1, UniProt P10520); assay: S. pyogenes streptokinase expression inhibitors, potency, dose response, plasminogen activation absorbance, OD405 (AID 1914); format: functional, Streptococcus pyogenes M1 GAS;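 note: secreted streptokinase activity via plasminogen activation per viability signal from cell pellet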
T4 sequence (P10520 whole entry): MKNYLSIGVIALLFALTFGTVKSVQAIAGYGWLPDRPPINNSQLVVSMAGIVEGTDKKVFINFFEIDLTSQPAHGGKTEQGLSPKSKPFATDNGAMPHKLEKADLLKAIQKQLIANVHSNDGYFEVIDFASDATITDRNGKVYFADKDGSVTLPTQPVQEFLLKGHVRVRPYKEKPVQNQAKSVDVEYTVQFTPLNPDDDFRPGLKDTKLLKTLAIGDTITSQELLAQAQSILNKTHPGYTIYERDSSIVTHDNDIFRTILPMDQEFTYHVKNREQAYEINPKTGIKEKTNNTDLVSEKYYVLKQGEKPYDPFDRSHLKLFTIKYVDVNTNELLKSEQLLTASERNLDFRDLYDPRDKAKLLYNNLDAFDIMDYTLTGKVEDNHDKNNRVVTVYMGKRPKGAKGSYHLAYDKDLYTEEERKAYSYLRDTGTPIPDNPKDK

[23] = biological target: T5, Carboxy-terminal domain RNA polymerase II polypeptide A small phosphatase 1 (Homo sapiens, UniProt Q9GZU7); assay: inhibitors of CTDSP1, concentration-response testing, biochemical assay, absorbance-based, actives from ultra-high-throughput screening (AID 540297); format: functional
T5 sequence (Q9GZU7 whole entry): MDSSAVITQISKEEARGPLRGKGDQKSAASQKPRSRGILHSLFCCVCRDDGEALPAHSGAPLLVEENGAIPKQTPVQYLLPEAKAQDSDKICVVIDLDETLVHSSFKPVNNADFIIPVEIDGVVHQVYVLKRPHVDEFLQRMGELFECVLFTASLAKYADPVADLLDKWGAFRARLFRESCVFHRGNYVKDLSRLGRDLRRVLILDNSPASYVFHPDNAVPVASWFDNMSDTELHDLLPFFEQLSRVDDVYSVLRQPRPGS

[24] = system: Streptococcus; assay: Group A Streptococcus viability loss, dose response, counter-screen for streptokinase expression inhibitor project, luminescence, BacTiterGlo (AID 1915); format: functional, organism-based;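 note: potency for reduction of bacterial viability or growth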
[25] = system: Streptococcus sp. 'group A'; assay: growth inhibition of control SK(-) GAS strain, dose response, counter-screen for streptokinase expression inhibitor project, luminescence, kanamycin, BacTiterGlo, confirmation (AID 1900); format: functional, organism-based
[26] = biological target: Cytochrome P450 2D6 (Homo sapiens, UniProt P10635);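 note: CYP2D6 member of a cytochrome P450 panel assay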
[27] = biological target: T3, Cytochrome P450 2C9; remark: listed apart in the source
[28] = A cytotoxicity screen of small molecule inhibitors of the PhoP region in Salmonella typhi identified in the primary screen. [Related pubchem assays: 1850, 1864, 1985 ]; format: functional
[29] = biological target: Nonstructural protein 1 (Influenza A virus, UniProt Q194T2); format: functional, Influenza A virus (A/California/07/2009(H1N1))
Chain of Nonstructural protein 1 (Q194T2 whole entry): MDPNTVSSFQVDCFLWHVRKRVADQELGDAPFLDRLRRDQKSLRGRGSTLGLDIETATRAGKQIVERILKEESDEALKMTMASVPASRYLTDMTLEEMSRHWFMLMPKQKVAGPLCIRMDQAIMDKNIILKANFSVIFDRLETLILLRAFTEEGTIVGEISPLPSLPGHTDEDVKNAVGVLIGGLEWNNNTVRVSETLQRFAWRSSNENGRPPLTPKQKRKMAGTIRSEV

Chain of Eukaryotic translation initiation factor 4E (P63073 whole entry): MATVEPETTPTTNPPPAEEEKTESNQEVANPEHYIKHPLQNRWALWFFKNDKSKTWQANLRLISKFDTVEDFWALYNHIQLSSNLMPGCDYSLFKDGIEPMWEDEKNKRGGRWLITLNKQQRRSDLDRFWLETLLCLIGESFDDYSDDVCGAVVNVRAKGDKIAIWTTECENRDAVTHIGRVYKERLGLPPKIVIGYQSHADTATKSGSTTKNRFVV
T3 sequence (P11712 whole entry): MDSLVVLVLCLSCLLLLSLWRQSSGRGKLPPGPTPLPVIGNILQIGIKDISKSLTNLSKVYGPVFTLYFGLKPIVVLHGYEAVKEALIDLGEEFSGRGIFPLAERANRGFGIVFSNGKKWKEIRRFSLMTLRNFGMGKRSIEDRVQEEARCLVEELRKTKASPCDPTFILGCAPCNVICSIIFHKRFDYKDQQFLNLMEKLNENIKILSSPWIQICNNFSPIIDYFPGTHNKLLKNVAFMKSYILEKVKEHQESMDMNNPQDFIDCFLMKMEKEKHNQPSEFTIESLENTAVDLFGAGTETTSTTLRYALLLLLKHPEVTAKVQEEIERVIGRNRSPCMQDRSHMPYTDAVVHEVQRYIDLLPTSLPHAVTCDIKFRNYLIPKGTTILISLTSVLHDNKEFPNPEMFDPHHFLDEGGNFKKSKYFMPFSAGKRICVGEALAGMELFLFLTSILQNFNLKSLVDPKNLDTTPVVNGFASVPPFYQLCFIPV
Chain of FAD-linked sulfhydryl oxidase ALR (P55789 whole entry): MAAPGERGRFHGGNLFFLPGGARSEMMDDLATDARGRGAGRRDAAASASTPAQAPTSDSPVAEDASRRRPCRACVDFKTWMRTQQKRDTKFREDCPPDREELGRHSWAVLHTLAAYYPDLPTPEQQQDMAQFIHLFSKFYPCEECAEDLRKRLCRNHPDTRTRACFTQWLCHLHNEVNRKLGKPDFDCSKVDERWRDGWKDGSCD
Chain of Cytochrome P450 2C19 (P33261 whole entry): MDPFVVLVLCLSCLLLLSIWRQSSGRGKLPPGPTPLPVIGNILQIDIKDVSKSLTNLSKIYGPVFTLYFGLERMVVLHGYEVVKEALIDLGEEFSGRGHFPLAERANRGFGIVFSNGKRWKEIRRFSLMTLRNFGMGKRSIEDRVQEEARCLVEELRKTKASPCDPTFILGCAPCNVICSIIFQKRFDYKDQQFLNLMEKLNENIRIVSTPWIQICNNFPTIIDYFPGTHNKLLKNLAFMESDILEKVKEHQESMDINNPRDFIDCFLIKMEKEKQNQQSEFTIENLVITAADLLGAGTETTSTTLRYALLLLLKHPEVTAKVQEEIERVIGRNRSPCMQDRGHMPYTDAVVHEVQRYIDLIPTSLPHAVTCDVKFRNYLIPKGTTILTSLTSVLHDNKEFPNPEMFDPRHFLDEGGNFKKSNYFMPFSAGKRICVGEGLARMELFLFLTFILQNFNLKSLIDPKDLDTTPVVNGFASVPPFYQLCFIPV
Chain of Cytochrome P450 3A4 (P08684 whole entry): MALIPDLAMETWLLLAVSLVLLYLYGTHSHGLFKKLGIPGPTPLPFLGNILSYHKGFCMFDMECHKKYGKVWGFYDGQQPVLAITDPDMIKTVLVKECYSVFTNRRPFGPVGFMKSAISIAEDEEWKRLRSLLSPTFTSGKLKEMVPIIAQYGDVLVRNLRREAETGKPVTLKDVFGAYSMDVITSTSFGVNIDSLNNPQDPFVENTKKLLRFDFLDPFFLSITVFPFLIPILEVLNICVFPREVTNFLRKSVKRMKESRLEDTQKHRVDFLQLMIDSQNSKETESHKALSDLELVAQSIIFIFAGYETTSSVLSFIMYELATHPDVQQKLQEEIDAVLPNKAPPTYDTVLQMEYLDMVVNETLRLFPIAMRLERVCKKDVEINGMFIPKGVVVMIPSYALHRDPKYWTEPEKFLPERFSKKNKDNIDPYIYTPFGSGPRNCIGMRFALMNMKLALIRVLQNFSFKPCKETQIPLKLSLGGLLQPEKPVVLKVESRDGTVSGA
Chain of Cytochrome P450 2D6 (P10635 whole entry): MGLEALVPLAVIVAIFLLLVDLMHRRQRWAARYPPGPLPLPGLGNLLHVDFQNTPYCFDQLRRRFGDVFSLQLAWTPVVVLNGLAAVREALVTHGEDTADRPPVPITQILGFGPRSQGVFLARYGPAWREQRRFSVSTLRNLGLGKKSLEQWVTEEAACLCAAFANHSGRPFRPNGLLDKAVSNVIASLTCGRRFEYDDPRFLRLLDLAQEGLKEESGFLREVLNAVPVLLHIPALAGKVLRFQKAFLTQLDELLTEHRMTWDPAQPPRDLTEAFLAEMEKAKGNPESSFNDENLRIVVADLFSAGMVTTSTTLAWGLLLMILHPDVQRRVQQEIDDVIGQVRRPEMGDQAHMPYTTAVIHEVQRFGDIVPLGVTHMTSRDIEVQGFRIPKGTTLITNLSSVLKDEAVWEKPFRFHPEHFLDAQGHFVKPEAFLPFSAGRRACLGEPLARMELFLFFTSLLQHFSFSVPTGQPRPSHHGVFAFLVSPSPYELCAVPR

Cc1cc(C)c2c(c1)-c1cc(C)nn1C(c1cccnc1)N2 (stereo not given)
AC50 [1]: 1.77 µM (active)

COC(=O)C1=C(C)N(Cc2ccccc2)C(NCc2cccc(Cl)c2)=N[C@H]1c1ccccc1
IC50 [2]: > 20 µM (inactive)
CC50 [3]: 18.5 µM (active)
AC50 [4]: 6.12 µM (active)

COc1ccccc1N1CCN(C[C@@H]2CN3C(=O)N(C)c4ccccc4C3=N2)CC1
AC50 [5]: 31.6 µM (inconclusive)
AC50 [6]: inconclusive

COc1ccc(/C=C/C(=O)Nc2cc(C(F)(F)F)ccc2Cl)cc1
AC50 [7]: 0.00631 µM (inconclusive)
AC50 [8]: 10 µM (inconclusive)
AC50 [6]: inconclusive

CCc1nc(SCc2cccnc2)nc(O)c1C
AC50 [1]: 0.563 µM (active)

COc1cc(OC)cc(C(=O)Nc2ccccc2C(=O)N2CCCC2)c1
EC50 [9]: > 120 µM (not active)
AC50 [5]: 14.1 µM (inconclusive)
EC50 [10]: > 120 µM (not active)
AC50 [6]: inconclusive
EC50 [11]: > 120 µM (not active)

O=C(Nc1cccc(Cl)c1)Nc1nc(-c2ccc(Cl)cc2)cs1
EC50 [12]: 28.1 µM (active)
EC50 [13]: 94.2 µM (active)

CC1(C)C(=O)N(CCN2CCC(C(=O)c3ccc(F)cc3)CC2)c2ccccc21
AC50 [6]: inconclusive

COc1ccc2c(c1)CC[C@@H]1[C@@H]2CC[C@]2(C)C(=O)CC[C@@H]12
IC50 [14]: > 64 µM (inactive)

Cc1ccc(-c2nn(-c3ccccc3)cc2CN(Cc2ccccc2)C(=O)CCC(=O)O)o1
AC50 [1]: 0.471 µM (active)

CC1CCCCC1N(C)C1CCN(C(=O)CNC(=O)/C=C/c2cccc(Cl)c2)CC1 (stereo not given)
EC50 [15]: 2.63 µM (inconclusive)
EC50 [16]: 2.79 µM (active)
EC50 [17]: 1.51 µM (active)
EC50 [18]: 2.72 µM (active)
EC50 [19]: 3.46 µM (active)

Cc1ccc(N2C(=O)c3cccc4c([N+](=O)[O-])ccc(c34)C2=O)c2cccnc12
EC50 [15]: 3.88 µM (inconclusive)
AC50 [20]: 29.5 µM (active)
AC50 [21]: 5.68 µM (active)
EC50 [16]: 26.5 µM (inconclusive)
EC50 [17]: 0.782 µM (active)
EC50 [18]: 2.21 µM (inconclusive)
EC50 [19]: 5.37 µM (inconclusive)

CC(=O)Oc1ccc2c(c1)OC(c1ccccc1)CC21CC(C)(C)NC(=S)N1 (stereo not given)
IC50 [14]: > 64 µM (inactive)

CC1Cc2ccccc2N1C(=O)C1CCCCN1S(=O)(=O)c1ccccc1 (stereo not given)
AC50 [6]: inconclusive

Cc1ccc2[nH]c(O)c(N=NC(=O)c3ccc(NS(=O)(=O)c4cccs4)cc3)c2c1
EC50 [22]: > 150 µM (not active)
IC50 [23]: 11.5 µM (active)
EC50 [24]: 16.3 µM (active)
EC50 [25]: 0.429 µM (active)

COC(=O)c1[nH]c2ccc(C)cc2c1NS(=O)(=O)c1ccc(F)cc1
AC50 [1]: 1.81 µM (active)

Cc1ccc(SCc2ccc(C(=O)Nc3cc([N+](=O)[O-])ccc3C)cc2)cc1
AC50 [26]: 3.16 µM (inconclusive)
AC50 [8]: 8.91 µM (inconclusive)
AC50 [6]: inconclusive

Cn1cnc(C(=O)N2CCc3ccccc3C2)c1C(=O)N1CCc2ccccc2C1
IC50 [23]: 4.36 µM (active)

N#Cc1ccccc1S(=O)(=O)N1CCN(C(=O)c2cc3c(s2)CCC3)CC1
IC50 [23]: 5.88 µM (active)

Cc1nnc(SCC(=O)Nc2nsc(-c3ccc(Cl)cc3)n2)s1
IC50 [23]: 15.2 µM (active)

COc1cccc(CNC(=O)Nc2cccs2)c1
AC50 [1]: 10.4 µM (active)

Cc1ccc2c(c1)C1CN(C)CCC1N2C(=O)/C(C#N)=C/c1ccc2c(c1)OCO2 (stereo not given)
IC50 [2]: > 20 µM (inactive)

COc1ccc(OC)c(NC(=O)CSc2sc3c(O)cc(=O)[nH]c3c2C#N)c1
IC50 [23]: 5.22 µM (active)

O=C(CCN1CCOCC1)c1ccccc1
EC50 [12]: 31.9 µM (active)
EC50 [13]: 24.8 µM (active)

O=C(NCCN1CCOCC1)c1nn2c(c1Cl)NC(c1ccccc1)CC2C(F)(F)F (stereo not given)
AC50 [26]: 35.5 µM (inconclusive)
IC50 [14]: > 64 µM (inactive)
AC50 [27]: 35.5 µM (inconclusive)

C/C(=N\NC(=O)c1cccc(N/N=C(\C)c2ccncc2)c1)c1ccncc1
AC50 [1]: 0.205 µM (active)

Cn1nc(C(F)(F)F)c(/C=N/OC(=O)c2ccc(Cl)cc2)c1Cl
AC50 [7]: 10 µM (inconclusive)
AC50 [6]: inconclusive

Cc1ccc(-c2ccc(/C=N\NC(=O)c3cc4c(ccc5ccccc54)o3)o2)cc1[N+](=O)[O-]
EC50 [12]: 5.36 µM (active)
EC50 [13]: 6.21 µM (active)

Clc1ccc(-c2ccc(/C=N/Nc3nncc(-c4ccccc4)n3)o2)cc1
EC50 [12]: 16.9 µM (active)
EC50 [13]: 14.5 µM (active)

O=C1C2C3C=CC(CC3)C2C(=O)N1/N=C/c1ccc(O)cc1 (stereo not given)
EC50 [28]: > 50 µM (active)

CCCCCC(=O)Nc1ccc(C(=O)N/N=C/c2ccc([N+](=O)[O-])cc2)cc1
EC50 [12]: 3.92 µM (active)
EC50 [13]: 4.99 µM (active)

Cc1ncc(CO)c(/C=N/NC(=O)c2cccc(S(=O)(=O)N3CCCC3)c2)c1O
IC50 [2]: > 20 µM (inactive)
IC50 [29]: 4.73 µM (active)
